Assays:
Caspase-3 (Homo sapiens) = molecular target: T1, Caspase-3 (Homo sapiens) (UniProt P42574); experiment: Inhibitory activity against caspase-3 (Csp-3)
T1 sequence (whole entry): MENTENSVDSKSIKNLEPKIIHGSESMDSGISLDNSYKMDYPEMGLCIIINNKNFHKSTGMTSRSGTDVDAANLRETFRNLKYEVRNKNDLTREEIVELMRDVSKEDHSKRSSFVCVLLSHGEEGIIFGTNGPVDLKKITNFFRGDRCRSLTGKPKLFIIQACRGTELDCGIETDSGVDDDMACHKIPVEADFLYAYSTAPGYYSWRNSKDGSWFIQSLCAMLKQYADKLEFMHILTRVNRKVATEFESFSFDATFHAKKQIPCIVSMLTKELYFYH

[1] = Cellular assay in a model of neuronal apoptosis involving cortical neurons exposed to concanavalin A; assay type: functional
Jurkat = experiment: Cellular assay in a Fas-induced model of apoptosis in Jurkat cells; assay type: functional, cell-based; details: Homo sapiens
Caspase-8 (Homo sapiens) = Caspase-8 (Homo sapiens) (UniProt Q14790); experiment: Inhibitory activity against caspase-8 (Csp-8)
Homo sapiens = organism: Homo sapiens; experiment: Cellular assay in an inflammation model measuring IL1-beta secretion from isolated human monocytes induced with Staph A; assay type: functional
Caspase-1 (Mus musculus) = molecular target: T2, Caspase-1 (Mus musculus) (UniProt P29452); experiment: Inhibitory activity against murine caspase-1
T2 sequence (whole entry): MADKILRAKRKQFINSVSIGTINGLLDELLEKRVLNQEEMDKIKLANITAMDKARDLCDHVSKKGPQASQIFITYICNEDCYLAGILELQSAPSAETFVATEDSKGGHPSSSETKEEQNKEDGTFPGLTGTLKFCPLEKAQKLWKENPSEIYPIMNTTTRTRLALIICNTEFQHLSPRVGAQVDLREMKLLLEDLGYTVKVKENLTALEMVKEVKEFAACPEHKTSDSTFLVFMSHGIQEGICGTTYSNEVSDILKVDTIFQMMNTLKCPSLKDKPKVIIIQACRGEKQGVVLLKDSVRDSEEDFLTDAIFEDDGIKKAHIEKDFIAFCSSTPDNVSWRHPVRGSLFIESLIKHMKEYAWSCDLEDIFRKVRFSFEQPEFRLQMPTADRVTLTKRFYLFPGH

Caspase-6 (Homo sapiens) = molecular target: T3, Caspase-6 (Homo sapiens) (UniProt P55212); experiment: Inhibitory activity against caspase-6 (Csp-6)
T3 sequence (whole entry): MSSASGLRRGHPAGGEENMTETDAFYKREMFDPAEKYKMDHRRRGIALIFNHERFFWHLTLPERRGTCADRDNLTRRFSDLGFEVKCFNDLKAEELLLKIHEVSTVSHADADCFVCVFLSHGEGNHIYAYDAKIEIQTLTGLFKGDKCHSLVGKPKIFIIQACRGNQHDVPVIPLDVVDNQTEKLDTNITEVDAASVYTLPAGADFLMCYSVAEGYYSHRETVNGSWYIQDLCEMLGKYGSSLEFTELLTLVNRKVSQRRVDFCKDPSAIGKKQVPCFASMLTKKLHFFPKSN

Sequence of Caspase-8 (Homo sapiens) (Q14790 217-374 limits assumed): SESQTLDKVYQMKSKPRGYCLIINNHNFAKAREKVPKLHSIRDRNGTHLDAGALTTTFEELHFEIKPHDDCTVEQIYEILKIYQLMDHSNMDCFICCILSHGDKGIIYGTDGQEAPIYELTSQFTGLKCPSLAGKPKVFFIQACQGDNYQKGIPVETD
Sequence of Caspase-8 (Homo sapiens) (Q14790 385-479 limits assumed): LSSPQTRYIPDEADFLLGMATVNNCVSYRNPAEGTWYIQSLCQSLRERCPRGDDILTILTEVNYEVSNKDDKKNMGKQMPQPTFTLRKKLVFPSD

Row | SMILES | k3/Ki (Caspase-3 (Homo sapiens)) | IC50 [1] | IC50 (Jurkat) | k3/Ki (Caspase-8 (Homo sapiens)) | IC50 (Homo sapiens) | k3/Ki (Caspase-1 (Mus musculus)) | k3/Ki (Caspase-6 (Homo sapiens))
1 | CC(C)[C@H](NC(=O)COc1cccc2ccccc12)C(=O)N[C@@H](CC(=O)O)C(=O)COc1ccc([N+](=O)[O-])cc1 | 8400 M⁻¹ s⁻¹ | 13.5 µM | > 100 µM | 137 M⁻¹ s⁻¹ | 22.8 µM | 6130 M⁻¹ s⁻¹ | 117 M⁻¹ s⁻¹
2 | CC(C)[C@H](NC(=O)COc1cccc2ccccc12)C(=O)N[C@@H](CC(=O)O)C(=O)COc1c(F)cc(F)cc1F | 114000 M⁻¹ s⁻¹ | 2.35 µM | 6.84 µM | 9080 M⁻¹ s⁻¹ | 14.9 µM | 20700 M⁻¹ s⁻¹ | 5140 M⁻¹ s⁻¹
3 | CC(C)[C@H](NC(=O)COc1cccc2ccccc12)C(=O)N[C@@H](CC(=O)O)C(=O)COc1ccc(Oc2ccc(C(F)(F)F)cc2)cc1 | 6930 M⁻¹ s⁻¹ | > 50 µM | 9.3 µM | 1120 M⁻¹ s⁻¹ | 24.9 µM | 1540 M⁻¹ s⁻¹ | 625 M⁻¹ s⁻¹
4 | CC(C)[C@H](NC(=O)COc1cccc2ccccc12)C(=O)N[C@@H](CC(=O)O)C(=O)COc1cc(F)cc(F)c1 | 9240 M⁻¹ s⁻¹ | 11.6 µM | > 100 µM | 154 M⁻¹ s⁻¹ | 15.9 µM | 2170 M⁻¹ s⁻¹ | 106 M⁻¹ s⁻¹
5 | CC(C)[C@H](NC(=O)COc1cccc2ccccc12)C(=O)N[C@@H](CC(=O)O)C(=O)COC(=O)c1c(Cl)cccc1Cl | 725000 M⁻¹ s⁻¹ | 2.15 µM | 10.6 µM | 17000 M⁻¹ s⁻¹ | 11.5 µM | 52100 M⁻¹ s⁻¹ | 56900 M⁻¹ s⁻¹
6 | CC(C)[C@H](NC(=O)COc1cccc2ccccc12)C(=O)N[C@@H](CC(=O)O)C(=O)COc1c(F)c(F)c(-c2c(F)c(F)c(F)c(F)c2F)c(F)c1F | 52100 M⁻¹ s⁻¹ | > 50 µM | 20 µM | 10400 M⁻¹ s⁻¹ | 40 µM | 6680 M⁻¹ s⁻¹ | 27000 M⁻¹ s⁻¹
7 | CC(C)[C@H](NC(=O)COc1cccc2ccccc12)C(=O)N[C@@H](CC(=O)O)C(=O)COc1c(F)c(F)c(F)c(F)c1F | 56600 M⁻¹ s⁻¹ |  | 3.05 µM | 8040 M⁻¹ s⁻¹ | 8.89 µM | 14700 M⁻¹ s⁻¹ | 13600 M⁻¹ s⁻¹
8 | CC(C)[C@H](NC(=O)COc1cccc2ccccc12)C(=O)N[C@@H](CC(=O)O)C(=O)COc1cccc(F)c1 | 17800 M⁻¹ s⁻¹ | > 50 µM | > 100 µM | 461 M⁻¹ s⁻¹ | 12 µM | 2730 M⁻¹ s⁻¹ | 48 M⁻¹ s⁻¹
9 | CC(C)[C@H](NC(=O)COc1cccc2ccccc12)C(=O)N[C@@H](CC(=O)O)C(=O)COc1cc(F)c(F)cc1F | 24400 M⁻¹ s⁻¹ | 4.16 µM | 39.3 µM | 668 M⁻¹ s⁻¹ | 16.7 µM | 11400 M⁻¹ s⁻¹ | 634 M⁻¹ s⁻¹
10 | CC(C)[C@H](NC(=O)COc1cccc2ccccc12)C(=O)N[C@@H](CC(=O)O)C(=O)COc1ccc(C(F)(F)F)cc1 | 13200 M⁻¹ s⁻¹ | > 50 µM | > 100 µM | 196 M⁻¹ s⁻¹ | 12.3 µM | 2580 M⁻¹ s⁻¹ | 77 M⁻¹ s⁻¹
11 | CC(C)[C@H](NC(=O)COc1cccc2ccccc12)C(=O)N[C@@H](CC(=O)O)C(=O)COc1cc(F)cc(F)c1F | 60100 M⁻¹ s⁻¹ | 3.75 µM | 30 µM | 1470 M⁻¹ s⁻¹ | 11.2 µM | 14700 M⁻¹ s⁻¹ | 1510 M⁻¹ s⁻¹
12 | CC(C)[C@H](NC(=O)COc1cccc2ccccc12)C(=O)N[C@@H](CC(=O)O)C(=O)COc1ccc(F)c(F)c1 | 6460 M⁻¹ s⁻¹ | 17 µM | > 100 µM | 117 M⁻¹ s⁻¹ | 16.2 µM | 1620 M⁻¹ s⁻¹ | 86 M⁻¹ s⁻¹
13 | CC(C)[C@H](NC(=O)COc1cccc2ccccc12)C(=O)N[C@@H](CC(=O)O)C(=O)COc1ccc2oc(=O)sc2c1 | 5890 M⁻¹ s⁻¹ |  | > 100 µM | 130 M⁻¹ s⁻¹ | 25.7 µM | 2240 M⁻¹ s⁻¹ | 81 M⁻¹ s⁻¹
14 | CC(C)[C@H](NC(=O)COc1cccc2ccccc12)C(=O)N[C@@H](CC(=O)O)C(=O)COc1c(F)c(F)cc(F)c1F | 268000 M⁻¹ s⁻¹ | 2.17 µM | 4.5 µM | 30200 M⁻¹ s⁻¹ | 6.25 µM | 77500 M⁻¹ s⁻¹ | 78900 M⁻¹ s⁻¹
15 | CC(C)[C@H](NC(=O)COc1cccc2ccccc12)C(=O)N[C@@H](CC(=O)O)C(=O)COc1ccc(Oc2ccccc2)cc1 | 9520 M⁻¹ s⁻¹ | > 50 µM | 12.7 µM | 668 M⁻¹ s⁻¹ | 19 µM | 1900 M⁻¹ s⁻¹ | 370 M⁻¹ s⁻¹
16 | CC(C)[C@H](NC(=O)COc1cccc2ccccc12)C(=O)N[C@@H](CC(=O)O)C(=O)COc1ccc([N+](=O)[O-])cc1F | 36500 M⁻¹ s⁻¹ | 6.2 µM | 30.3 µM | 1850 M⁻¹ s⁻¹ | 15.8 µM | 12300 M⁻¹ s⁻¹ | 1770 M⁻¹ s⁻¹
17 | CC(C)[C@H](NC(=O)COc1cccc2ccccc12)C(=O)N[C@@H](CC(=O)O)C(=O)COc1cccc(C(F)(F)F)c1F | 33900 M⁻¹ s⁻¹ | 3.7 µM | 50.4 µM | 1030 M⁻¹ s⁻¹ | 18.2 µM | 7220 M⁻¹ s⁻¹ | 683 M⁻¹ s⁻¹
18 | CC(C)[C@H](NC(=O)COc1cccc2ccccc12)C(=O)N[C@@H](CC(=O)O)C(=O)COc1cc(F)ccc1F | 49000 M⁻¹ s⁻¹ | 4.85 µM | > 100 µM | 483 M⁻¹ s⁻¹ | 19.7 µM | 12100 M⁻¹ s⁻¹ | 1330 M⁻¹ s⁻¹
19 | CC(C)[C@H](NC(=O)COc1cccc2ccccc12)C(=O)N[C@@H](CC(=O)O)C(=O)COc1c(Cl)cccc1Cl | 179000 M⁻¹ s⁻¹ | 2.75 µM | 3 µM | 2710 M⁻¹ s⁻¹ | 15.3 µM | 25300 M⁻¹ s⁻¹ | 87700 M⁻¹ s⁻¹
20 | CC(C)[C@H](NC(=O)COc1cccc2ccccc12)C(=O)N[C@@H](CC(=O)O)C(=O)COc1ccccc1[N+](=O)[O-] | 73000 M⁻¹ s⁻¹ | 5.85 µM | > 100 µM | 1810 M⁻¹ s⁻¹ | 27.7 µM | 23500 M⁻¹ s⁻¹ | 10700 M⁻¹ s⁻¹
21 | CC(C)[C@H](NC(=O)COc1cccc2ccccc12)C(=O)N[C@@H](CC(=O)O)C(=O)COc1ccc(F)c(F)c1F | 35800 M⁻¹ s⁻¹ | > 50 µM | 35.8 µM | 769 M⁻¹ s⁻¹ | 20.6 µM | 11900 M⁻¹ s⁻¹ | 253 M⁻¹ s⁻¹
22 | CC(C)[C@H](NC(=O)COc1cccc2ccccc12)C(=O)N[C@@H](CC(=O)O)C(=O)COP(=O)(c1ccccc1)c1ccccc1 | 351000 M⁻¹ s⁻¹ |  | 18.4 µM | 59300 M⁻¹ s⁻¹ | 3.48 µM | 143000 M⁻¹ s⁻¹ | 39700 M⁻¹ s⁻¹

Source: ChEMBL document CHEMBL1136305, “Structure-activity relationships within a series of caspase inhibitors: effect of leaving group modifications” (Bioorg Med Chem Lett, 2003)
